For 82 compounds, IC50 results are on record in US7935724B2, “Thiophene and benzothiophene hydroxamic acid derivatives” (Merck HDAC Research, LLC, priority 2003, dated 2011).

Each structure is given as a SMILES string. Where two headings read alike, the source gives them in different places.

This assay concerns the target T1, histone deacetylase, subtype 1 (HDAC1) (Homo sapiens, UniProt Q13547).
T1 construct: Flag; made in house
Nature of the assay: HDAC1-Flag assay (in vitro deacetylation assay). The format is biochemical. To be noted: concentration for 50% inhibition of deacetylation, substrate at Km, unit inferred, text gives nm, read-out: HDAC Inhibition. Here is the method: Novel compounds were tested for their ability to inhibit histone deacetylase, subtype 1 (HDAC1) using an in vitro deacetylation assay. The enzyme source for this assay was an epitope-tagged human HDAC1 complex immuno-purified from stably expressing mammalian cells. The substrate consisted of a commercial product containing an acetylated lysine side chain (BIOMOL Research Laboratories, Inc., Plymouth Meeting, Pa.). Upon deacetylation of the substrate by incubation with the purified HDAC1 complex, a fluorophore is produced that is directly proportional to the level of deacetylation.

Setting [1] is: Table 1, benzothiophene backbone.

T1 sequence (Q13547 whole entry): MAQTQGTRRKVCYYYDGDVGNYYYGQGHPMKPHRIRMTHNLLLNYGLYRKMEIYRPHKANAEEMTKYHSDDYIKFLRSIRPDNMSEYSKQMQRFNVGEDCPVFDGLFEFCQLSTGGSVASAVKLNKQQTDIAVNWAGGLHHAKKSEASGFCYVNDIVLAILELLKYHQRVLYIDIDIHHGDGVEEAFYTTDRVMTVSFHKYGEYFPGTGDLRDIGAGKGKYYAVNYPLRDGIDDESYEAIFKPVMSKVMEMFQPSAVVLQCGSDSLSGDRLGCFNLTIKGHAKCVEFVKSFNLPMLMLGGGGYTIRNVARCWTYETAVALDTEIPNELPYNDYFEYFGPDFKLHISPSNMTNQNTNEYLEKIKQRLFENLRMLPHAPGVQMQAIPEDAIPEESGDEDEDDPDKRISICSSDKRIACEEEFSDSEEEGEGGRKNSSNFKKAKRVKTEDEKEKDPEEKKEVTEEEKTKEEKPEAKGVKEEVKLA

In the case of `O=C(NO)c1cc2ccccc2s1` [Compound 1], the IC50 under setting [1] is 672 ± 98.9 nM. As for `O=C(NO)c1cc2cc(C(F)(F)F)ccc2s1` [Compound 2], the IC50 under setting [1] was found to be 609 ± 24.7 nM. On the same count and under the same terms, next, `O=C(Nc1ccc2sc(C(=O)NO)cc2c1)c1ccccc1` [Compound 3]: 106 ± 13.4 nM; `O=C(CCc1ccccc1)Nc1ccc2sc(C(=O)NO)cc2c1` [Compound 4]: 61 ± 9.8 nM; `O=C(Nc1ccc2cc(C(=O)NO)sc2c1)c1ccccc1` [Compound 5]: 204 ± 48.7 nM. Still for that read-out and setting: next, `O=C(NCc1ccccc1)Nc1ccc2cc(C(=O)NO)sc2c1` [Compound 7]: 52 ± 19.7 nM; `CC(C)C(=O)Nc1ccc2cc(C(=O)NO)sc2c1` [Compound 9]: 156 ± 33.2 nM. Same read-out and setting: next, `O=C(NO)c1cc2ccc(NS(=O)(=O)c3ccccc3)cc2s1` [Compound 10]: 46.5 ± 23.3 nM. Regarding `O=C(NO)c1cc2ccc(NS(=O)(=O)Cc3ccccc3)cc2s1` [Compound 11], the IC50 under setting [1] was 41 ± 11.3 nM. The same measure, in the same setting: next, `O=C(NO)c1cc2ccc(NS(=O)(=O)c3ccc(-c4ccccc4)cc3)cc2s1` [Compound 12]: 45 ± 32.5 nM; `O=C(Cc1ccccc1)Nc1ccc2sc(C(=O)NO)cc2c1` [Compound 15]: 31 ± 7 nM. Regarding `O=C(/C=C/c1ccccc1)Nc1ccc2sc(C(=O)NO)cc2c1` [Compound 16], the IC50 under setting [1] is 185 ± 52.3 nM. With `O=C(NO)c1cc2cc(NS(=O)(=O)c3ccc4ccccc4c3)ccc2s1` [Compound 17], the IC50 under setting [1] stood at 52.5 ± 10.6 nM.

Take `O=C(NO)c1cc2cc(NS(=O)(=O)c3ccc(-c4ccccc4)cc3)ccc2s1` [Compound 18]: the IC50 under setting [1] came to 91 ± 49.4 nM.

Consider `O=C(NO)c1cc2cc(NS(=O)(=O)Cc3ccccc3)ccc2s1` [Compound 19], for which the IC50 under setting [1] is 119 ± 21.9 nM. Still for that read-out and setting: next, `O=C(NO)c1cc2cc(N(Cc3ccccc3)Cc3ccccc3)ccc2s1` [Compound 20]: 1650 ± 1160 nM; `O=C(NO)c1cc2cc(N(Cc3ccccc3)Cc3ccccc3)ccc2s1` [Compound 21]: 949 ± 834 nM; `O=C(NO)c1cc2cc([N+](=O)O)ccc2s1` [Compound 22]: 1740 ± 63.6 nM. Still for that read-out and setting: for `COC(=O)c1ccc2cc(C(=O)NO)sc2c1` [Compound 23] the value was 627 ± 5.6 nM. The same measure, in the same setting: for `O=C(NO)C(=O)Nc1ccc2cc(C(=O)NO)sc2c1` [Compound 24] the value was 1170 ± 214 nM; for `O=C(NO)c1cc2cc(NS(=O)(=O)c3ccccc3)ccc2s1` [Compound 26], 166 ± 22.6 nM.

With `O=C(NO)c1cc2cc(NS(=O)(=O)c3cccc4ccccc34)ccc2s1` [Compound 27], under setting [1], the IC50 was found to be 102 ± 24 nM. Still for that read-out and setting: next, `O=C(Nc1ccc2cc(C(=O)NO)sc2c1)c1cccnc1` [Compound 29]: 262 ± 33.9 nM; `O=C(Nc1ccc2cc(C(=O)NO)sc2c1)OCc1ccccc1` [Compound 30]: 113 ± 33.2 nM; `CCOC(=O)Nc1ccc2cc(C(=O)NO)sc2c1` [Compound 31]: 350 ± 13.4 nM. The same measure, in the same setting: for `O=C(NCCc1ccccc1)Nc1ccc2cc(C(=O)NO)sc2c1` [Compound 32] the value was 88.5 ± 33.2 nM; for `CCOC(=O)Nc1ccc2sc(C(=O)NO)cc2c1` [Compound 34], 238 ± 2.8 nM.

Consider `CC(C)C(=O)Nc1ccc2sc(C(=O)NO)cc2c1` [Compound 35], for which, under setting [1], the IC50 amounted to 149 ± 23.3 nM. On the same count and under the same terms, next, `O=C(Nc1ccc2sc(C(=O)NO)cc2c1)c1cccnc1` [Compound 37]: 157 nM; `O=C(Nc1ccc2sc(C(=O)NO)cc2c1)c1ccc2ccccc2n1` [Compound 38]: 444 nM. Same read-out and setting: for `O=C(NCc1ccccc1)Nc1ccc2sc(C(=O)NO)cc2c1` [Compound 40] the value was 72 nM. On the same count and under the same terms, for `O=C(Nc1ccc2sc(C(=O)NO)cc2c1)c1ccc2ccccc2c1` [Compound 41] the value was 413 nM; for `O=C(NO)c1ccc2sc(C(=O)NO)cc2c1` [Compound 42], 424 nM.

Consider `Cc1ccc(S(=O)(=O)Nc2ccc3cc(C(=O)NO)sc3c2)cc1` [Compound 43], for which the IC50 under setting [1] came out at 60.5 ± 2.1 nM. The same measure, in the same setting: next, `Cc1ccc(S(=O)(=O)Nc2ccc3sc(C(=O)NO)cc3c2)cc1` [Compound 44]: 162 ± 54.4 nM; `COC(=O)c1ccc2sc(C(=O)NO)cc2c1` [Compound 45]: 737 ± 143 nM; `O=C(CN1CCN(c2ccccc2)CC1)Nc1ccc2cc(C(=O)NO)sc2c1` [Compound 46]: 37 nM.

On to `O=C(CN1CCc2ccccc2C1)Nc1ccc2cc(C(=O)NO)sc2c1` [Compound 47], for which the IC50 under setting [1] was 24 nM. The same measure, in the same setting: for `COc1ccc(C(=O)Nc2ccc3cc(C(=O)NO)sc3c2)cc1OC` [Compound 48] the value was 280 nM. Still for that read-out and setting: for `COc1ccc(CC(=O)Nc2ccc3cc(C(=O)NO)sc3c2)cc1OC` [Compound 49] the value was 35 nM.

With `O=C(Cc1cccc(F)c1)Nc1ccc2cc(C(=O)NO)sc2c1` [Compound 50], the IC50 under setting [1] came out at 14 nM. Same read-out and setting: next, `COc1ccc(OC)c(CC(=O)Nc2ccc3cc(C(=O)NO)sc3c2)c1` [Compound 51]: 62 nM; `COc1ccccc1CC(=O)Nc1ccc2cc(C(=O)NO)sc2c1` [Compound 52]: 20 nM; `COc1cccc(CC(=O)Nc2ccc3sc(C(=O)NO)cc3c2)c1` [Compound 53]: 54 nM. Regarding `O=C(NO)c1ccc(-c2ccccc2)s1` [Compound 54], where the note is “Table 2, thiophene backbone”, the IC50 worked out at 219 nM.

For `COc1cccc(-c2ccc(C(=O)NO)s2)c1` [Compound 55], the IC50 (Table 2, thiophene backbone) is 444 ± 54.4 nM. Still for that read-out and setting: for `O=C(Nc1ccc(C(=O)NO)s1)c1ccccc1` [Compound 56] the value was 714 ± 122 nM; for `O=C(NO)c1ccc(NC(=O)c2cccc3ccccc23)s1` [Compound 57], 363 ± 16.9 nM; for `O=C(Nc1ccc(C(=O)NO)s1)c1ccc2ccccc2c1` [Compound 58], 730 ± 127 nM. Still for that read-out and setting: next, `O=C(NCc1ccccc1)c1ccc(-c2ccc(C(=O)NO)s2)cc1` [Compound 60]: 464 ± 65 nM. Turning to `O=C(NO)c1ccc(-c2cccc(CN(Cc3ccccc3)Cc3ccccc3)c2)s1` [Compound 61], for the setting “Table 2, thiophene backbone”, the IC50 was 1000 nM. Still for that read-out and setting: for `O=C(NO)c1ccc(-c2cccc(CN(CCc3ccccc3)Cc3ccccc3)c2)s1` [Compound 62] the value was 933 ± 22.6 nM. Still for that read-out and setting: next, `O=C(/C=C/c1ccc(C(=O)NO)s1)Nc1ccccc1` [Compound 63]: 397 nM. The same measure, in the same setting: next, `O=C(/C=C/c1ccc(C(=O)NO)s1)NCc1ccccc1` [Compound 64]: 206 nM; `O=C(/C=C/c1ccc(C(=O)NO)s1)NCCc1ccccc1` [Compound 65]: 41 nM.

With `O=C(/C=C/c1ccc(C(=O)NO)s1)NCCCc1ccccc1` [Compound 66], for the setting “Table 2, thiophene backbone”, the IC50 was 70 nM. With `O=C(/C=C/c1ccc(C(=O)NO)s1)NCC1CCCCC1` [Compound 67], where the note is “Table 2, thiophene backbone”, the IC50 turned out to be 120 nM.

On to `O=C(NO)c1ccc(-c2cccc(CN3CCc4ccccc4C3)c2)s1` [Compound 68], for which the IC50 (Table 2, thiophene backbone) was found to be 417 nM. `O=C(NO)c1ccc(-c2cccc(CN3CCN(c4ccccc4)CC3)c2)s1` [Compound 69]: the IC50 (Table 2, thiophene backbone) stood at 174 nM.

As for `O=C(NO)c1ccc(-c2cccc(CN(Cc3ccccc3)Cc3cnc4ccccc4c3)c2)s1` [Compound 70], the IC50 (Table 2, thiophene backbone) turned out to be 399 nM. Still for that read-out and setting: for `O=C(NO)c1ccc(-c2cccc(CN(Cc3ccccc3)Cc3ccnc4ccccc34)c2)s1` [Compound 71] the value was 461 nM; for `O=C(NO)c1ccc(-c2cccc(CN(CCc3ccccc3)Cc3cnc4ccccc4c3)c2)s1` [Compound 72], 570 nM.

Take `O=C(NO)c1ccc(-c2cccc(CN(CCc3ccccc3)Cc3ccnc4ccccc34)c2)s1` [Compound 73]: the IC50 (Table 2, thiophene backbone) was determined as 705 ± 92.6 nM. Consider `O=C(NO)c1ccc(-c2cccc(CN(CCCc3ccccc3)Cc3cnc4ccccc4c3)c2)s1` [Compound 74], for which the IC50 (Table 2, thiophene backbone) came out at 461 nM.

With `O=C(NO)c1ccc(-c2cccc(CN(CCCc3ccccc3)Cc3ccnc4ccccc34)c2)s1` [Compound 75], the IC50 (Table 2, thiophene backbone) was 920 ± 569 nM. Still for that read-out and setting: for `O=C(NO)c1ccc(-c2cccc(CN(CCCc3ccccc3)Cc3ccccc3)c2)s1` [Compound 76] the value was 1010 nM; for `O=C(/C=C/c1ccc(C(=O)NO)s1)NC1CCCCC1` [Compound 79], 666 nM; for `O=C(CCc1ccc(C(=O)NO)s1)Nc1ccccc1` [Compound 80], 481 nM.

Take `O=C(CCc1ccc(C(=O)NO)s1)NCCc1ccccc1` [Compound 81]: the IC50 (Table 2, thiophene backbone) was found to be 690 nM.

As for `O=C(CCc1ccc(C(=O)NO)s1)NCCCc1ccccc1` [Compound 82], the IC50 (Table 2, thiophene backbone) came to 526 nM. The same measure, in the same setting: for `O=C(CCc1ccc(C(=O)NO)s1)NCC(c1ccccc1)c1ccccc1` [Compound 83] the value was 581 nM. Take `O=C(Cc1ccc(F)cc1)Nc1ccc2sc(C(=O)NO)cc2c1` [Compound 84]: the IC50 under setting [1] came out at 56.5 ± 16.2 nM.

For `COc1ccc(CC(=O)Nc2ccc3sc(C(=O)NO)cc3c2)cc1OC` [Compound 85], the IC50 under setting [1] amounted to 76 ± 15.5 nM. Same read-out and setting: for `COc1ccc(OC)c(CC(=O)Nc2ccc3sc(C(=O)NO)cc3c2)c1` [Compound 87] the value was 111 ± 23.3 nM; for `O=C(NCc1ccccc1)c1ccc2cc(C(=O)NO)sc2c1` [Compound 92], 53 ± 7 nM. Same read-out and setting: next, `O=C(NCc1ccccn1)c1ccc2cc(C(=O)NO)sc2c1` [Compound 94]: 85.7 ± 23.5 nM; `O=C(Cc1ccc(Cl)cc1)Nc1ccc2sc(C(=O)NO)cc2c1` [Compound 95]: 79.5 ± 33.2 nM.

As to `COc1ccc(CC(=O)Nc2ccc3sc(C(=O)NO)cc3c2)cc1` [Compound 96], the IC50 under setting [1] is 83 ± 21.2 nM. Regarding `CN(O)C(=O)c1cc2ccc(NC(=O)Cc3ccccc3)cc2s1` [Compound 102], the IC50 under setting [1] worked out at 14400 nM.

As to `Nc1ccccc1NC(=O)c1cc2ccccc2s1` [Compound 103], the IC50 under setting [1] amounted to 1820 ± 508 nM.

On to `O=C(Nc1ccccc1)c1ccc2sc(C(=O)NO)cc2c1` [Compound 104], for which, under setting [1], the IC50 was found to be 582 ± 9.8 nM. Same read-out and setting: for `O=C(NCCc1ccccc1)c1ccc2sc(C(=O)NO)cc2c1` [Compound 105] the value was 155 ± 13.4 nM.
